# According to patent publication US4530837A, “Peptide derivatives, their preparation process and their pharmaceutical use” (Commissariat a l'Energie Atomique, priority 1982, dated 1985):
# Legend:
# [1] = system: hydrochloric acid secretion stimulated by histamine; assay: inhibition of secretion plateau stimulated by histamine in anesthetized perfused-stomach rats; assay type: in vivo, rat; conditions: 150 nmol/kg i.v., histamine 13.5 μmol/kg/h
# Method: (§1) For the purpose of these tests, use was made of male Wistar rats weighing 300±25 g. The rats were not allowed to take solid food for 18 hours, but were allowed to drink water freely. They were then anesthesized with urethane (1.25 g/kg) by the intramuscular route. The temperature of the rats was maintained at 34° C. by means of lamps, approximately 60 cm away from them. A polyethylene catheter was introduced into the esophagus up to the level of the cardia and a second catheter for collecting the stomach secretion at the duodenum. After washing the stomach, the latter was continuously perfused with a 0.9% sodium chloride solution, at a flow rate of 1 ml/min, using a peristaltic pump connected to the catheter of the esophagus.
# (§2) After a period of stabilizing the system lasting approximately 90 minutes after the operation, the compounds which it was wished to study were injected intravenously into the vein of the penis and the gastric secretion was collected by fractions taken every 20 minutes, the interval between these injections being min 90 minutes. The acidity of the sample fractions was dosed by means of a 0.01N sodium solution at the phenolphthalein colour change.
# In this case, use is made of the same operating procedure as in the second group of experiments, by stimulating the secretion by histamine. In this case, a higher histamine dose (13.5 μmol/kg/h) is injected.
# [2] = system: hydrochloric acid secretion; assay: hydrochloric acid secretion in anesthetized rats with perfused stomach (Ghosh and Schild, modified by Lai): agonist effect; assay type: in vivo, rat; conditions: intravenous injection, male Wistar rats
# Method: as §1, §2
smiles,measurement,setting,value
CN/C(=N\CCSCc1nc[nH]c1C)NC#N [cimetidine],duration of inhibition of the histamine response,[1],approximately 3 h
same,inhibition of the histamine response (intensity),[1],approximately 55%
same,maximum inhibition percentage (mean ± ESM),[1]; group of 4 rats,54.4±2.7%
"CSCC[C@H](NC(=O)[C@H](Cc1c[nH]c2ccccc12)NC(=O)CCNC(=O)OC(C)(C)C)C(=O)N[C@@H](CC(=O)O)C(=O)N[C@@H](Cc1ccccc1)C(N)=O [pentagastrin, Boc-βAla-Trp-Met-Asp-Phe-NH2]",dose from which activity on hydrochloric acid secretion is maximum,[2],≥ 20 nmol/kg
